Active and inactive are the calls of the source. The calls are words filed in the database; no cut-off is given here.

The test system of assay [1] is HT-29. The experiment in a line: Induction of ferroptosis in human HT-29 cells assessed as increase in intracellular iron level incubated for 48 hrs in presence of ferroptosis inhibitor CPX. The assay is classed as functional, cell-based.
The subject of assay [2] is HT-29. Kind of assay: Induction of autophagy in human HT-29 cells assessed as increase in MDC positive cells incubated for 48 hrs in presence of ROS scavenger NAC by MDC staining based flow cytometric analysis. It counts as functional, cell-based. For orientation: Flow cytometry measures light scatter and fluorescence of single cells or particles in a stream.
The subject of assay [3] is HT-29. The experiment in a line: Induction of ferroptosis in human HT-29 cells assessed as fusion of mitochondrial cristae incubated for 48 hrs in presence of ferroptosis inhibitor deferoxamine by transmission electron microscopic analysis. The assay is classed as functional, cell-based.
Assay [4] concerns HT-29. The experiment in a line: Induction of ferroptosis in human HT-29 cells assessed as increase in intracellular lipid peroxidation accumulation incubated for 48 hrs by C11 BODIPY 581/591 staining based flow cytometry. It counts as functional, cell-based.
In assay [5] the test system is HT-29. The experiment in a line: Induction of ferroptosis in human HT-29 cells incubated for 48 hrs by MTT assay. It counts as functional, cell-based. For orientation: Formazan colour is commonly taken as a measure of viable cells.
Assay [6] relates to HT-29. Kind of assay: Induction of ferroptosis in human HT-29 cells assessed as decrease in intracellular GSH level at 1 to 4 uM incubated for 48 hrs. Conditions: dose 1-4 µM. The assay is classed as functional, cell-based.
In assay [7] the test system is HT-29. The experiment in a line: Induction of ferroptosis in human HT-29 cells assessed as increase in intracellular malondialdehyde accumulation incubated for 48 hrs in presence of autophagy inhibitor 3-methyladenine. It counts as functional, cell-based.
The test system of assay [8] is MCF7. Kind of assay: Antiproliferative activity against human MCF7 cells assessed as inhibition of cell growth incubated for 48 hrs by MTT assay. It counts as functional, cell-based. Conditions: MCF7, 48 h.
For assay [9], the system named is HT-29. The experiment in a line: Induction of ROS production in human HT-29 cells assessed as increase in DCF fluorescence intensity incubated for 48 hrs by DCFH-DA fluorescent probe based flow cytometry. The assay is classed as functional, cell-based.
Assay [10] concerns HT-29. The experiment in a line: Induction of autophagy in human HT-29 cells assessed as increase in MDC positive cells incubated for 48 hrs in presence of ferroptosis inhibitor deferoxamine by MDC staining based flow cytometric analysis. It counts as functional, cell-based.
Assay [11] deals with HT-29. Kind of assay: Induction of ferroptosis in human HT-29 cells assessed as increase in intracellular iron level incubated for 48 hrs in presence of ferroptosis inhibitor deferoxamine. It counts as functional, cell-based.
The test system of assay [12] is HT-29. Kind of assay: Induction of ferroptosis in human HT-29 cells assessed as mitochondrial morphological change incubated for 48 hrs in presence of ferroptosis inhibitor deferoxamine by transmission electron microscopic analysis. The assay is classed as functional, cell-based.
The subject of assay [13] is HT-29. Kind of assay: Induction of ferroptosis in human HT-29 cells assessed as increase in intracellular lipid peroxidation accumulation incubated for 48 hrs in presence of ferroptosis inhibitor deferoxamine by C11 BODIPY 581/591 staining based flow cytometry. It counts as functional, cell-based.
Assay [14] concerns HT-29. Kind of assay: Induction of ferroptosis in human HT-29 cells assessed as increase in intracellular lipid peroxidation accumulation incubated for 48 hrs in presence of ferroptosis inhibitor CPX by C11 BODIPY 581/591 staining based flow cytometry. The assay is classed as functional, cell-based.
Assay [15] concerns HT-29. Kind of assay: Induction of cell cycle arrest in human HT-29 cells assessed as accumulation of cells at G2/M phase incubated for 48 hrs by propidium iodide staining based flow cytometric analysis. The assay is classed as functional.
Assay [16] deals with HT-29. The experiment in a line: Induction of necrosis in human HT-29 cells incubated for 48 hrs by MTT assay. It counts as functional, cell-based.
For assay [17], the system named is HT-29. Kind of assay: Induction of cell cycle arrest in human HT-29 cells assessed as accumulation of cells at G2/M phase at 1 uM incubated for 48 hrs by propidium iodide staining based flow cytometric analysis. It counts as functional.

Usually IC50 stands for the concentration at which inhibition is half-maximal. With `COc1ccc2c(c1)NCCN2C(=O)NCCCl`, the result in assay [1], in assay [2], in assay [3], in assay [11], in [12] and in assay [13] was inactive. Besides, the result in assay [14] and in [17] was inactive. The Activity result in assay [4], in assay [9] and in [15] was “Dose-Dependent Effect” each time. The outcome in assay [5], in [6], in assay [7], in [10] and in assay [16] was Active. For the same molecule, the IC50 in [8] was determined as 7.01 µM.

(Values after ChEMBL document CHEMBL5505995, “Discovery of novel urea derivatives as ferroptosis and autophagy inducer for human colon cancer treatment” (Eur J Med Chem, 2024).)
